Test results as given in article PMC9875641, “Ophthalmic Solution of Smart Supramolecular Peptides to Capture Semaphorin 4D against Diabetic Retinopathy” (Advanced Science, 2022).

Legend:
[1] = tested on: mouse brain microvascular endothelial cells (MBMEC); test: CCK-8 cytotoxicity; type: cell-based; details: CCK-8, 24 h incubation, concentrations up to 80 × 10^−6 M
Experimental: In addition, KLVFF sequence, a sheet structure with strong hydrogen‐bonding was introduced into SSPs, we could distinctly observe the secondary structure of SSPs by circular dichroism (CD) spectroscopy. […] The percentage of β‐sheet after incubation with sSema4D in SSP‐1 and SSP‐2 were 85.6% and 42.3%, respectively, indicative of a highly organized packing of NFs in SSP‐1. […] The high percentage of β‐sheet structure in NFs stabilized the formation of nanostructure networks, due to its strong hydrogen‐bonding KLVFF sequence. Moreover, we carried out the cytotoxicity of SSP‐1 and SSP‐2 by using a standard CCK‐8 (Figure 3D). […] Finally, we investigated the recognition of sSema4D and SSP‐1 and SSP‐2 by confocal laser scanning microscope (CLSM). […]
pericytes were cultured in Pericyte Medium (ScienCell, USA). bEnd.3 cells were purchased from ATCC and grown in DMEM with 10% fetal bovine serum.
Preparation method of nanoparticles. The nanomaterials FG-12 and FH-12 were added to a 1:1 mixture of propylene glycol and ethanol solution to form a 2 mM mother liquor. The mother solution was diluted in normal saline at 1:100 dilution to form a 20 μM nanoparticle solution. […]
solution was added. After 2 h incubation with CCK8 solution at 37℃ in a 5% CO2 atmosphere, the […] was evaluated by a fluorescence microplate reader (PerkinElmer, Waltham, MA, USA). real-time PCR. […]

[2] = tested on: retina; test: Biosafety in the retina after intraocular injection; type: in vivo, mouse; details: for pathological changes in the retina (HE staining): 30 d after intraocular injection; for abnormalities in retinal pigment epithelium, rod and cone layer, outer nuclear layer and retinal ganglion cells (electron microscopy): mouse, in vivo
Excerpt: After 30 d of SSP‐1 and SSP‐2 intraocular injection, the biosafety of SSP‐1 and SSP‐2 was systematically studied by H&E staining and electron microscopy.

[3] = tested on: endothelial cells; test: Wound-healing and transwell migration of endothelial cells induced by recombinant Sema4D; type: cell-based, mouse; details: wound-healing and transwell assays, n = 3; effect equal to anti-Sema4D antibody

Substance | viability of MBMEC [1] [%] | pathological changes in the retina (HE staining) [2] | abnormalities in retinal pigment epithelium, rod and cone layer, outer nuclear layer and retinal ganglion cells (electron microscopy) [2] | recombinant Sema4D protein-induced endothelial cell migration [3]
C16‐FFVLK‐KQKRPRH [SSP-1, smart supramolecular peptide, C16‐FFVLK‐KQKRPRH, self-assembling, captures sSema4D] | ~90 | no significant pathological changes | no significant abnormalities | inhibited
C16‐FFVLK‐KNKAAKG [SSP-2, smart supramolecular peptide, C16‐FFVLK‐KNKAAKG, self-assembling, captures sSema4D] | ~90 | no significant pathological changes | no significant abnormalities | inhibited
